Data: patent US8614182B2 (Jiangsu Hansoh Pharmaceuticals Co., Ltd., priority 2009, dated 2013)
Blank lines part the entries; values can stand above or below the molecule they belong to. Non-standard residues stand in square brackets, D forms with d. Residues, ends and D or L forms follow the SMILES beside them. *: point of attachment. εLys(Nα-Palmitoyl) = CCCCCCCCCCCCCCCC(=O)N[C@@H](CCCCN*)C(=O)O

What was measured:
[1] = test system: db/db mice with type 2 diabetes; experiment: Random blood glucose of db/db mice after single subcutaneous injection; type: in vivo; details: for random blood glucose: n = 8; for decrease rate of random blood glucose: versus control group
Method: db/db mice with type 2 diabetes were divided into six groups based on a random blood glucose and body weight (8 per group). […] The random blood glucose of the mice is determined at differete time after administration.
Preparation method: 1 bottle of the compound (2 mg/bottle) was dissolved with double-distilled water to prepare a colorless and transparent solution of which the concentration is 2 mg/mL. […] “ACCU-CHEK® Advantage” blood glucose meter form Roche was used to determine the blood glucose.
Route and volume of administration: Single subcutaneous injection dose, dose volume was 5 mL/kg. […]
The random blood glucoses of db/db mice were measured.
Each group has 8 mice, half male and half female. The animals of each group were administered with the test compounds or solvent control respectively through single subcutaneous injection.

[2] = molecular target: T1, Glucagon-like peptide-1 receptor (GLP1R) (Homo sapiens, UniProt P43220); experiment: Agonist activity on GLP1R, cAMP response element luciferase reporter gene in HEK293 cells; type: cell-based; details: HEK293 cells stably transfected with GLP1R and pCRE-Luc, 5 hours incubation; read-out: Maximum reaction rate
T1 construct: expressed in transfected cells; host or cells: HEK293
T1 sequence (P43220 24-463, species assumed): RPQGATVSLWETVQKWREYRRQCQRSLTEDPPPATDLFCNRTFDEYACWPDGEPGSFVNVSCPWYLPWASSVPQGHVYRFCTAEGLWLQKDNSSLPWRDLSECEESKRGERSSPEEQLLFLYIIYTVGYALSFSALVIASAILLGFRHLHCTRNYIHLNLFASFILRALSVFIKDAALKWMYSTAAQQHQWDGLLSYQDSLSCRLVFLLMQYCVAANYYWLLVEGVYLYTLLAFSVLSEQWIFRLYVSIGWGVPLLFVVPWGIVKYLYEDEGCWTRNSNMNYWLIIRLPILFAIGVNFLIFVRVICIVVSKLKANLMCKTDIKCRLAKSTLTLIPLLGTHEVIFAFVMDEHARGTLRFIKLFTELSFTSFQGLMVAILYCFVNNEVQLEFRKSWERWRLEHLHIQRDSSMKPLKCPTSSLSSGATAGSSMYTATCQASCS
Text: GLP1R is a receptor coupled with Gs protein, of which the binding with the agonists will result in an increase of intracellular cAMP concentration. In the present experiment, GLP1R and the luciferase reporter gene plasmid regulated by cAMP response elements are co-transfected into HEK293 cells. When the compound binds to the receptor and activates the receptors, the expression of the luciferase will increase. The activation status of the compound to GLP1R can be learned by testing the activity of the luciferase.
2. The compounds or positive drugs having a certain concentration gradient were added (3 wells per concentration) and incubated at 37° C. for 5 hours. The negative control was solvent DMSO.
3. 50 μl culture medium was taken from each well, and 50 μl of the luciferase substrate were added and vortexed for 10 minutes.
4. 80 μl reaction solution was taken and transferred to a white 96 well plate, then detected on the Invision microplate reader (enzyme-labelling measuring instrument).

SMILES: CCCCCCCCCCCCCCCC(=O)N[C@@H](CCCCNC(=O)[C@H](CO)NC(=O)[C@@H]1CCCN1C(=O)[C@@H]1CCCN1C(=O)[C@@H]1CCCN1C(=O)[C@H](C)NC(=O)CNC(=O)[C@H](CO)NC(=O)[C@H](CO)NC(=O)[C@@H]1CCCN1C(=O)CNC(=O)CNC(=O)[C@H](CCCNC(=N)N)NC(=O)[C@@H](NC(=O)[C@H](CC(C)C)NC(=O)[C@H](Cc1c[nH]c2ccccc12)NC(=O)[C@H](C)NC(=O)[C@@H](NC(=O)[C@H](Cc1ccccc1)NC(=O)[C@H](CCC(=O)O)NC(=O)[C@H](CCCCN)NC(=O)[C@H](C)NC(=O)[C@H](C)NC(=O)[C@H](CCC(=O)O)NC(=O)[C@H](CCC(=O)O)NC(=O)[C@H](CCC(=O)O)NC(=O)[C@H](CC(C)C)NC(=O)[C@H](Cc1ccc(O)cc1)NC(=O)[C@H](CO)NC(=O)[C@H](CO)NC(=O)[C@@H](NC(=O)[C@H](CC(=O)O)NC(=O)[C@H](CO)NC(=O)[C@@H](NC(=O)[C@H](Cc1ccccc1)NC(=O)[C@@H](NC(=O)CNC(=O)[C@H](CCC(=O)O)NC(=O)[C@@H](C)NC(=O)[C@@H](N)Cc1c[nH]cn1)[C@@H](C)O)[C@@H](C)O)C(C)C)[C@@H](C)CC)C(C)C)C(=O)O [HS-20003] (H-H[dA]EGTFTSDVSSYLEEEAAKEFIAWLVRGGPSSGAPPPS-{εLys(Nα-Palmitoyl)}; N-terminus and C-terminus assumed)
- random blood glucose ([1]; 3 μg/kg single s.c., 1 h after administration, X ± s): 19.56 ± 1.19 mmol/L
- decrease rate of random blood glucose ([1]; 3 μg/kg single s.c., 1 h after administration): 17.33%
- random blood glucose ([1]; 3 μg/kg single s.c., 2 h after administration, X ± s): 19.44 ± 1.48 mmol/L
- decrease rate of random blood glucose ([1]; 3 μg/kg single s.c., 2 h after administration): 14.09%
- random blood glucose ([1]; 3 μg/kg single s.c., 4 h after administration, X ± s): 19.63 ± 1.12 mmol/L
- decrease rate of random blood glucose ([1]; 3 μg/kg single s.c., 4 h after administration): 10.80%
- random blood glucose ([1]; 3 μg/kg single s.c., 8 h after administration, X ± s): 22.59 ± 1.05 mmol/L
- decrease rate of random blood glucose ([1]; 3 μg/kg single s.c., 8 h after administration): 11.03%
- random blood glucose values compared with those of the control group ([1]; 3 μg/kg single s.c., after 2 h, 4 h and 8 h): no significant difference
- random blood glucose values compared with those of the control group ([1]; 3 μg/kg single s.c., after one hour, P<0.05): decreased significantly
- random blood glucose ([1]; 3 μg/kg single s.c., before administration, X ± s): 25.16 ± 1.49 mmol/L
- decrease rate of random blood glucose ([1]; 10 μg/kg single s.c., 1 h after administration): 23.62%
- random blood glucose ([1]; 10 μg/kg single s.c., 1 h after administration, ± s): 20.74 ± 0.98 mmol/L
- decrease rate of random blood glucose ([1]; 10 μg/kg single s.c., 2 h after administration): 25.93%
- random blood glucose ([1]; 10 μg/kg single s.c., 2 h after administration, ± s): 21.10 ± 0.80 mmol/L
- decrease rate of random blood glucose ([1]; 10 μg/kg single s.c., 4 h after administration): 36.49%
- random blood glucose ([1]; 10 μg/kg single s.c., 4 h after administration, ± s): 19.54 ± 1.80 mmol/L
- decrease rate of random blood glucose ([1]; 10 μg/kg single s.c., 8 h after administration): 26.12%
- random blood glucose ([1]; 10 μg/kg single s.c., 8 h after administration, ± s): 22.14 ± 2.16 mmol/L
- decrease rate of random blood glucose ([1]; 10 μg/kg single s.c., 24 h after administration): 11.89%
- random blood glucose ([1]; 10 μg/kg single s.c., 24 h after administration, ± s): 24.45 ± 1.55 mmol/L
- random blood glucose values compared with those of the control group ([1]; 10 μg/kg single s.c., after 2 h, 4 h and 8 h): still keep at a lower level
- random blood glucose values compared with those of the control group ([1]; 10 μg/kg single s.c., after 24 hours): no significant difference
- random blood glucose values compared with those of the control group ([1]; 10 μg/kg single s.c., after one hour, P<0.01): decreased significantly
- random blood glucose ([1]; 10 μg/kg single s.c., before administration, ± s): 23.20 ± 1.36 mmol/L
- random blood glucose level (words, test conclusions) ([1]; single s.c., dose of 3 μg/kg (so in the source)): decreased obviously
- Emax [2]: 87.9%

- Emax [2]: 87%
SMILES: CCCCCCCCCCCCCCCC(=O)N[C@@H](CCCCNC(=O)[C@H](CO)NC(=O)[C@@H]1CCCN1C(=O)[C@@H]1CCCN1C(=O)[C@@H]1CCCN1C(=O)CNC(=O)CNC(=O)[C@H](CCCCN)NC(=O)[C@H](CCCCN)NC(=O)CNC(=O)[C@H](CCCNC(=N)N)NC(=O)CNC(=O)[C@H](CCCCN)NC(=O)[C@@H](NC(=O)[C@H](CC(C)C)NC(=O)[C@H](Cc1c[nH]c2ccccc12)NC(=O)[C@@H](NC(=O)[C@@H](NC(=O)[C@H](Cc1ccccc1)NC(=O)[C@H](CCC(=O)O)NC(=O)[C@H](C)NC(=O)[C@H](C)NC(=O)[C@H](CCC(N)=O)NC(=O)[C@H](CCC(=O)O)NC(=O)[C@H](CCC(=O)O)NC(=O)[C@H](CC(C)C)NC(=O)[C@H](Cc1ccc(O)cc1)NC(=O)[C@H](CO)NC(=O)[C@H](CO)NC(=O)[C@@H](NC(=O)[C@H](CC(=O)O)NC(=O)[C@H](CO)NC(=O)[C@@H](NC(=O)[C@H](Cc1ccccc1)NC(=O)[C@@H](NC(=O)CNC(=O)[C@H](CCC(=O)O)NC(=O)[C@H](C)NC(=O)[C@@H](N)Cc1c[nH]cn1)[C@@H](C)O)[C@@H](C)O)C(C)C)[C@@H](C)CC)C(C)C)C(C)C)C(=O)O [HS-20007]

- Emax [2]: 89.1%
SMILES: CCCCCCCCCCCCCCCC(=O)N[C@@H](CCCCNC(=O)[C@H](CO)NC(=O)[C@@H]1CCCN1C(=O)[C@@H]1CCCN1C(=O)[C@@H]1CCCN1C(=O)CNC(=O)CNC(=O)[C@H](CCCCN)NC(=O)[C@H](CCCCN)NC(=O)CNC(=O)[C@H](CCCNC(=N)N)NC(=O)CNC(=O)[C@H](CCCCN)NC(=O)[C@@H](NC(=O)[C@H](CC(C)C)NC(=O)[C@H](Cc1c[nH]c2ccccc12)NC(=O)[C@@H](NC(=O)[C@@H](NC(=O)[C@H](Cc1ccccc1)NC(=O)[C@H](CCC(=O)O)NC(=O)[C@H](C)NC(=O)[C@H](C)NC(=O)[C@H](CCC(N)=O)NC(=O)CNC(=O)[C@H](CCC(=O)O)NC(=O)[C@H](CC(C)C)NC(=O)[C@H](Cc1ccc(O)cc1)NC(=O)[C@H](CO)NC(=O)[C@H](CO)NC(=O)[C@@H](NC(=O)[C@H](CC(=O)O)NC(=O)[C@H](CO)NC(=O)[C@@H](NC(=O)[C@H](Cc1ccccc1)NC(=O)[C@@H](NC(=O)CNC(=O)[C@H](CCC(=O)O)NC(=O)[C@H](C)NC(=O)[C@@H](N)Cc1c[nH]cn1)[C@@H](C)O)[C@@H](C)O)C(C)C)[C@@H](C)CC)C(C)C)C(C)C)C(=O)O [HS-20005]
